Laboratory results: patent US8987250B2 (Gilead Sciences, Inc., priority 2012, dated 2015)
Read-outs that look alike come from different tables or passages of the source.

Test system: HIV-IIIb
Assay: Test A: Antiviral Assay in MT4 Cells
Format: cell-based
Settings: Human immunodeficiency virus 1, IIIB, MT4, 120 h
Outline: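 MT-4 cells pre-infected with HIV-IIIb (0.004 m.o.i.) at 37 °C, then exposed to 3-fold serial compound dilutions (10 concentrations, quadruplicate) in RPMI 1640/10% FBS. After 5 days at 37 °C, viability read by CellTiter-Glo luminescence.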

[1] = Table 2, MT-4 cells infected with HIV-IIIb, 5 days of incubation, CellTiter-Glo, read-out: EC50

| SMILES | EC50 [1] | EC50 |
| --- | --- | --- |
| Cc1cc2nc(-c3cnc4c(c3)c(-c3cccnc3)cn4C)sc2c(-c2ccc(Cl)cc2)c1[C@H](OC(C)(C)C)C(=O)O [Compound 249, (S)-2-tert-butoxy-2-(7-(4-chlorophenyl)-5-methyl-2-(1-methyl-3-(pyridin-3-yl)-1H-pyrrolo[2,3-b]pyridin-5-yl)benzo[d]thiazol-6-yl)acetic acid] | 0.007 µM |  |
| Cc1cc2nc(N3CCn4c(nnc4C(F)(F)F)C3)sc2c(-c2ccc(Cl)cc2)c1[C@H](OC(C)(C)C)C(=O)O [Compound 250, (S)-2-tert-butoxy-2-(7-(4-chlorophenyl)-5-methyl-2-(3-(trifluoromethyl)-5,6-dihydro-[1,2,4]triazolo[4,3-a]pyrazin-7(8H)-yl)benzo[d]thiazol-6-yl)acetic acid] |  | 0.235 µM |
| Cc1cc2nc(-c3ccc4c(c3)c(C)nn4C)sc2c(-c2ccc(Cl)cc2)c1[C@H](OC(C)(C)C)C(=O)O [Compound 254, (S)-2-tert-butoxy-2-(7-(4-chlorophenyl)-2-(1,3-dimethyl-1H-indazol-5-yl)-5-methylbenzo[d]thiazol-6-yl)acetic acid] | 0.008 µM |  |
| Cc1cc2nc(-c3cc(-c4ccc5c(c4)c(C)nn5C)nc(N4CCN(C)CC4)c3)sc2c(-c2ccc(Cl)cc2)c1[C@H](OC(C)(C)C)C(=O)O [Compound 255, (S)-2-tert-butoxy-2-(7-(4-chlorophenyl)-2-(2-(1,3-dimethyl-1H-indazol-5-yl)-6-(4-methylpiperazin-1-yl)pyridin-4-yl)-5-methylbenzo[d]thiazol-6-yl)acetic acid] | 0.012 µM |  |
| Cc1cc2nc(-c3ccc4c(c3)C(C)(C)C(=O)N4C)sc2c(-c2ccc(Cl)cc2)c1[C@H](OC(C)(C)C)C(=O)O [Compound 256, (S)-2-tert-butoxy-2-(7-(4-chlorophenyl)-5-methyl-2-(1,3,3-trimethyl-2-oxoindolin-5-yl)benzo[d]thiazol-6-yl)acetic acid] | 0.009 µM |  |
| Cc1cc2nc(-c3ccc4c(c3)c(N(C)C)nn4C)sc2c(-c2ccc(Cl)cc2)c1[C@H](OC(C)(C)C)C(=O)O [Compound 258, (S)-2-tert-butoxy-2-(7-(4-chlorophenyl)-2-(3-(dimethylamino)-1-methyl-1H-indazol-5-yl)-5-methylbenzo[d]thiazol-6-yl)acetic acid] | 0.013 µM |  |
| Cc1cc2nc(-c3ccc4c(N5CCN(C)CC5)nn(C)c4c3)sc2c(-c2ccc(Cl)cc2)c1[C@H](OC(C)(C)C)C(=O)O [Compound 259, (S)-2-tert-butoxy-2-(7-(4-chlorophenyl)-5-methyl-2-(1-methyl-3-(4-methylpiperazin-1-yl)-1H-indazol-6-yl)benzo[d]thiazol-6-yl)acetic acid] | 0.012 µM |  |
| Cc1cc2nc(-c3ccc4c(c3)c(C3CC3)nn4C)sc2c(-c2ccc(Cl)cc2)c1[C@H](OC(C)(C)C)C(=O)O [Compound 264, (S)-2-tert-butoxy-2-(7-(4-chlorophenyl)-2-(3-cyclopropyl-1-methyl-1H-indazol-5-yl)-5-methylbenzo[d]thiazol-6-yl)acetic acid] | 0.017 µM |  |
| Cc1cc2nc(-c3ccc4nn(C)c(C)c4c3)sc2c(-c2ccc(Cl)cc2)c1[C@H](OC(C)(C)C)C(=O)O [Compound 265, (S)-2-tert-butoxy-2-(7-(4-chlorophenyl)-2-(2,3-dimethyl-2H-indazol-5-yl)-5-methylbenzo[d]thiazol-6-yl)acetic acid] | 0.015 µM |  |
| Cc1cc2nc(-c3ccc4c(N)nn(C)c4c3)sc2c(-c2ccc(Cl)cc2)c1[C@H](OC(C)(C)C)C(=O)O [Compound 266, (S)-2-(2-(3-amino-1-methyl-1H-indazol-6-yl)-7-(4-chlorophenyl)-5-methylbenzo[d]thiazol-6-yl)-2-tert-butoxyacetic acid] | 0.01 µM |  |
| Cc1cc2nc(-c3ccc4c(C5CCN(C)CC5)nn(C)c4c3)sc2c(-c2ccc(Cl)cc2)c1[C@H](OC(C)(C)C)C(=O)O [Compound 267, (S)-2-tert-butoxy-2-(7-(4-chlorophenyl)-5-methyl-2-(1-methyl-3-(1-methylpiperidin-4-yl)-1H-indazol-6-yl)benzo[d]thiazol-6-yl)acetic acid] | 0.011 µM |  |
| Cc1cc2nc(-c3ccc4c(c3)c(C3CCN(C)CC3)nn4C)sc2c(-c2ccc(Cl)cc2)c1[C@H](OC(C)(C)C)C(=O)O [Compound 268, (S)-2-tert-butoxy-2-(7-(4-chlorophenyl)-5-methyl-2-(1-methyl-3-(1-methylpiperidin-4-yl)-1H-indazol-5-yl)benzo[d]thiazol-6-yl)acetic acid] | 0.012 µM |  |
| Cc1cc2nc(-c3ccc4c(c3)c(N3CCN(C(C)C)CC3)nn4C)sc2c(-c2ccc(Cl)cc2)c1[C@H](OC(C)(C)C)C(=O)O [Compound 269, (S)-2-tert-butoxy-2-(7-(4-chlorophenyl)-2-(3-(4-isopropylpiperazin-1-yl)-1-methyl-1H-indazol-5-yl)-5-methylbenzo[d]thiazol-6-yl)acetic acid] | 0.012 µM |  |
| Cc1cc(C)n(-c2cccc(-c3nc4cc(C)c([C@H](OC(C)(C)C)C(=O)O)c(-c5ccc(Cl)cc5)c4s3)c2)n1 [Compound 272, (S)-2-tert-butoxy-2-(7-(4-chlorophenyl)-2-(3-(3,5-dimethyl-1H-pyrazol-1-yl)phenyl)-5-methylbenzo[d]thiazol-6-yl)acetic acid] | 0.078 µM |  |
| Cc1cc2nc(-n3ccnc(-c4ccc5c(cnn5C)c4)c3=O)sc2c(-c2ccc(Cl)cc2)c1[C@H](OC(C)(C)C)C(=O)O [Compound 273, (S)-2-tert-butoxy-2-(7-(4-chlorophenyl)-5-methyl-2-(3-(1-methyl-1H-indazol-5-yl)-2-oxopyrazin-1(2H)-yl)benzo[d]thiazol-6-yl)acetic acid] | 0.053 µM |  |
| Cc1cc2nc(N3CCN(C)C(c4ccc5c(cnn5C)c4)C3=O)sc2c(-c2ccc(Cl)cc2)c1[C@H](OC(C)(C)C)C(=O)O (stereo partly drawn) [Compound 274, (2S)-2-tert-butoxy-2-(7-(4-chlorophenyl)-5-methyl-2-(4-methyl-3-(1-methyl-1H-indazol-5-yl)-2-oxopiperazin-1-yl)benzo[d]thiazol-6-yl)acetic acid] | 0.031 µM |  |
| Cc1cc2nc(N3CCNC(c4ccc5c(cnn5C)c4)C3=O)sc2c(-c2ccc(Cl)cc2)c1[C@H](OC(C)(C)C)C(=O)O (stereo partly drawn) [Compound 275, (2S)-2-tert-butoxy-2-(7-(4-chlorophenyl)-5-methyl-2-(3-(1-methyl-1H-indazol-5-yl)-2-oxopiperazin-1-yl)benzo[d]thiazol-6-yl)acetic acid] | 0.021 µM |  |
| Cc1cc2nc(N3CCN(C(=O)OC(C)(C)C)C(c4ccc5c(cnn5C)c4)C3)sc2c(-c2ccc(Cl)cc2)c1[C@H](OC(C)(C)C)C(=O)O (stereo partly drawn) [Compound 276, (2S)-2-tert-butoxy-2-(2-(4-(tert-butoxycarbonyl)-3-(1-methyl-1H-indazol-5-yl)piperazin-1-yl)-7-(4-chlorophenyl)-5-methylbenzo[d]thiazol-6-yl)acetic acid] | 0.037 µM |  |
| Cc1cc2nc(N3CCNC(c4ccc5c(cnn5C)c4)C3)sc2c(-c2ccc(Cl)cc2)c1[C@H](OC(C)(C)C)C(=O)O (stereo partly drawn) [Compound 277, (2S)-2-tert-butoxy-2-(7-(4-chlorophenyl)-5-methyl-2-(3-(1-methyl-1H-indazol-5-yl)piperazin-1-yl)benzo[d]thiazol-6-yl)acetic acid] | 0.026 µM |  |
| Cc1cc2nc(N3CCN(C(C)C)C(c4ccc5c(cnn5C)c4)C3)sc2c(-c2ccc(Cl)cc2)c1[C@H](OC(C)(C)C)C(=O)O (stereo partly drawn) [Compound 279, (2S)-2-tert-butoxy-2-(7-(4-chlorophenyl)-2-(4-isopropyl-3-(1-methyl-1H-indazol-5-yl)piperazin-1-yl)-5-methylbenzo[d]thiazol-6-yl)acetic acid] | 0.016 µM |  |
| Cc1cc2nc(-c3cccc(-c4cnc(=O)n(C)c4)c3)sc2c(-c2ccc(Cl)cc2)c1[C@H](OC(C)(C)C)C(=O)O [Compound 280, (S)-2-tert-butoxy-2-(7-(4-chlorophenyl)-5-methyl-2-(3-(1-methyl-2-oxo-1,2-dihydropyrimidin-5-yl)phenyl)benzo[d]thiazol-6-yl)acetic acid] | 0.248 µM |  |
| Cc1cc2nc(-c3nccc(N4CCN(C)CC4)n3)sc2c(-c2ccc(Cl)cc2)c1[C@H](OC(C)(C)C)C(=O)O [Compound 281, (S)-2-tert-butoxy-2-(7-(4-chlorophenyl)-5-methyl-2-(4-(4-methylpiperazin-1-yl)pyrimidin-2-yl)benzo[d]thiazol-6-yl)acetic acid] | 0.031 µM |  |
| Cc1cc2nc(-c3cncc(N4CCN(C)CC4)n3)sc2c(-c2ccc(Cl)cc2)c1[C@H](OC(C)(C)C)C(=O)O [Compound 282, (S)-2-tert-butoxy-2-(7-(4-chlorophenyl)-5-methyl-2-(6-(4-methylpiperazin-1-yl)pyrazin-2-yl)benzo[d]thiazol-6-yl)acetic acid] | 0.003 µM |  |
| Cc1cc2nc(-c3ccc4ncn(C)c4c3)sc2c(-c2ccc(Cl)cc2)c1[C@H](OC(C)(C)C)C(=O)O [Compound 283, (S)-2-tert-butoxy-2-(7-(4-chlorophenyl)-5-methyl-2-(1-methyl-1H-benzo[d]imidazol-6-yl)benzo[d]thiazol-6-yl)acetic acid] | 0.051 µM |  |
| Cc1cc2nc(-c3ccc4c(c3)n(C)c(=O)n4C)sc2c(-c2ccc(Cl)cc2)c1[C@H](OC(C)(C)C)C(=O)O [Compound 286, (S)-2-(tert-butoxy)-2-(7-(4-chlorophenyl)-2-(1,3-dimethyl-2-oxo-2,3-dihydro-1H-benzo[d]imidazol-5-yl)-5-methylbenzo[d]thiazol-6-yl)acetic acid] | 0.01 µM |  |
| Cc1cc2nc(-c3ccc4nc[nH]c4c3)sc2c(-c2ccc(Cl)cc2)c1[C@H](OC(C)(C)C)C(=O)O [Compound 287, (S)-2-(2-(1H-benzo[d]imidazol-6-yl)-7-(4-chlorophenyl)-5-methylbenzo[d]thiazol-6-yl)-2-(tert-butoxy)acetic acid] | 0.113 µM |  |
| COc1cnc(-c2ccc3c(cnn3C)c2)cc1-c1nc2cc(C)c([C@H](OC(C)(C)C)C(=O)O)c(-c3ccc(Cl)cc3)c2s1 [Compound 288, (S)-2-(tert-butoxy)-2-(7-(4-chlorophenyl)-2-(5-methoxy-2-(1-methyl-1H-indazol-5-yl)pyridin-4-yl)-5-methylbenzo[d]thiazol-6-yl)acetic acid] | 0.065 µM |  |
